The values below come from paper PMC12596218 (Journal of Lipid Research, 2025).

Several values for one entry are separate records, joined by “and”; a condition that tells them apart may be missing. Equal entries are not always repeated.

Series [1] concerns the target T1, NTCP (Homo sapiens, UniProt Q14973).
T1 construct: stably transfected with the full open reading frames of human NTCP, ASBT, SOAT, OATP1B1, OATP1B3, OATP2B1, and murine Asbt (mAsbt); expressed in transfected cells; host or cells: HEK293 (Flp-In), stably transfected, tetracycline-induced
T1 sequence (Q14973 1-349): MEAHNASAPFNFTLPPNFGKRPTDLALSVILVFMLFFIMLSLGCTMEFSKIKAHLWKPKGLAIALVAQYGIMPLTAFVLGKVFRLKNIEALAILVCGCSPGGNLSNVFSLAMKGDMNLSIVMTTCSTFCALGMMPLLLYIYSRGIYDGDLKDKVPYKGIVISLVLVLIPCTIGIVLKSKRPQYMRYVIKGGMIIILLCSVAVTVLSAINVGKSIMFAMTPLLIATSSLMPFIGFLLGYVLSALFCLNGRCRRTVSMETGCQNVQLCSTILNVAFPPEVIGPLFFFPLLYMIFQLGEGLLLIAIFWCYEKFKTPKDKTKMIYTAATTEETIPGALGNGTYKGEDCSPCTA
The experiment in a line: [3H]DHEAS transport inhibition assay in NTCP-HEK293 cells. Format: cell-based. The conditions noted are these: 1 μM [3H]DHEAS, 10 min; two independent experiments; read-out: IC50 NTCP [3H]DHEAS uptake. The source says:
(§1) Human embryonic kidney HEK293 cells, stably transfected with the full open reading frames of human NTCP, ASBT, SOAT, OATP1B1, OATP1B3, OATP2B1, and murine Asbt (mAsbt) were used as reported ([18], [20], [21], [22], [23]). The NTCP, ASBT, and mAsbt constructs were C-terminally tagged with the FLAG epitope, and the SOAT construct was C-terminally tagged with green fluorescent protein. Non-transfected Flp-In HEK293 cells (Thermo Fisher Scientific) served as the control. All cell lines were maintained at 37°C, 5% CO2 and 95% humidity in DMEM/F-12 medium (Thermo Fisher Scientific) supplemented with 10% fetal calf serum (Sigma-Aldrich), 4 mM L-glutamine (PAA) and penicillin/streptomycin (PAA). […]
(§2) Cells were seeded onto poly-L-lysine-coated 96-well plates, induced with 1 μg/ml tetracycline, and grown to confluence over 72 h at 37°C. […] Then, the cell-associated radioactivity of the respective tritium-labeled substrate or ligand was quantified by liquid scintillation counting using MicroScint-20 scintillation cocktail (Revvity) in a Packard Microplate Scintillation Counter TopCount NXT (Packard Instrument Company). […] Finally, all net transport data were expressed as uptake or binding as % of control. […] From the specific uptake rates, Michaelis Menten Km values were calculated by non-linear regression analysis.

Series [2] has as its target T1, NTCP. The series can be described thus: [3H]rosuvastatin transport inhibition assay in NTCP-HEK293 cells. The conditions noted are these: 1 μM [3H]rosuvastatin, 10 min; two independent experiments; read-out: IC50 NTCP [3H]rosuvastatin uptake. The series is classed as cell-based.
From the text: as §1, §2

Series [3] concerns the target T1, NTCP. The series can be described thus: [3H]preS1 peptide binding to NTCP-HEK293 cells. The conditions noted are these: 5 nM [3H]preS1; two independent experiments.
From the text: as §1, §2

In series [4] the test system is NTCP. The conditions noted are these: cited from earlier work.
The next series deals with T2, ASBT (Homo sapiens, UniProt Q12908).
T2 construct: stably transfected with the full open reading frames of human NTCP, ASBT, SOAT, OATP1B1, OATP1B3, OATP2B1, and murine Asbt (mAsbt); expressed in transfected cells; host or cells: HEK293 (Flp-In), stably transfected, tetracycline-induced
T2 sequence (Q12908 1-348): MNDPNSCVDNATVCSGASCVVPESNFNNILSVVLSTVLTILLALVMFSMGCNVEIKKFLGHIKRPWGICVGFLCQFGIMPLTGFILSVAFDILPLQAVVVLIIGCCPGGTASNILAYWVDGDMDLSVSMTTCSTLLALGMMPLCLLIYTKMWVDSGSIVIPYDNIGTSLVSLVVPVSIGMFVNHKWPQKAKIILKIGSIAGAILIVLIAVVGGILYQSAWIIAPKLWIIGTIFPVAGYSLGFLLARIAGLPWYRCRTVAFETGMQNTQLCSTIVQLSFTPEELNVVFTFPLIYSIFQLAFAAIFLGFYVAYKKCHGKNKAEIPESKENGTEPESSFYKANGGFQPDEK
The experiment in a line: Transport inhibition and recovery assay (inhibitor washout) in ASBT-HEK293 cells. The series is classed as cell-based. The conditions noted are these: 3 μM inhibitor, 5 min preincubation, 10 min uptake of 1 μM [3H]TC.

Another series has as its system OATP2B1. The conditions noted are these: cited from earlier work.

Consider `CCCCC1(CCCC)CN(c2ccccc2)c2cc(SC)c(OCC(=O)N[C@@H](C(=O)NCC(=O)O)c3ccccc3)cc2S(=O)(=O)C1` [elobixibat], for which the IC50 (as a rule, the midpoint of a concentration-inhibition curve) on NTCP [1] was 11.7 µM and 11.1 µM; on NTCP [2], 19.2 µM and 11.9 µM; on NTCP [3] it was 147 µM and 36 µM; in the series with NTCP [4] (ref PMDA Goofice Report on the Deliberation Results, read-out: IC50 NTCP inhibition) it was 0.24 µM.

For the compound `CCCC[C@]1(CC)CS(=O)(=O)c2cc(CNC(CC(=O)O)CC(=O)O)c(OC)cc2[C@@H](c2ccccc2)N1` [linerixibat], the “ASBT inhibition with inhibitor present during uptake (inhibitor + [3H]TC)” value on ASBT is recorded as “full ASBT inhibition”. In the series on OATP2B1, the “Substrate of OATP2B1” value was “is not a substrate”.

`CCCCC1(CCCC)CS(=O)(=O)c2ccc(N(C)C)cc2[C@@H](c2ccc(OCc3ccc(C[N+]45CCN(CC4)CC5)cc3)cc2)[C@H]1O` [maralixibat]: the “Inhibition of NTCP” value in the series with NTCP [4] (50 μM, NTCP expressed in CHO cells, ref FDA NDA 214662 Livmarli) is reported as “Maralixibat at 50 μM produced 5% inhibition of NTCP expressed in CHO cells”. Further, in the series on OATP2B1 (in vitro studies, ref EMA EPAR Product Information Maralixibat), the “OATP2B1 inhibition (in words)” value was “Maralixibat is an OATP2B1 inhibitor based on in vitro studies. No potential for clinically relevant drug-drug interactions (DDI), but theoretical risk of interaction with substrates of this carrier”. Further, the half-maximal inhibitory concentration (IC50) in the series with OATP2B1 (in vitro, ref FDA NDA 214662 Livmarli, read-out: IC50 OATP2B1 inhibition) is 1.02 µM.

As to `CCCCC1(CCCC)CN(c2ccccc2)c2cc(SC)c(OCC(=O)N[C@@H](C(=O)N[C@@H](CC)C(=O)O)c3ccc(O)cc3)cc2S(=O)(=O)N1` [odevixibat], the half-inhibitory concentration (IC50) is 8.7 µM and 5.5 µM at NTCP [1]; 6.6 µM and 5.4 µM at NTCP [2]; 144 µM and 15.9 µM on NTCP [3].
